In general, IC50 refers to the midpoint of a concentration-inhibition curve.

Each structure is given as a SMILES string.

Among the data in ChEMBL document CHEMBL4813914, “Tackling Antimicrobial Resistance with Small Molecules Targeting LsrK: Challenges and Opportunities” (J Med Chem, 2020) are IC50 values, retold here.

The nature of the first experiment: Inhibition of Salmonella typhimurium LsrK expressed in Escherichia coli MET1158 in presence of DPD by kinase-glo max luminescent assay. More on the design: species or system Salmonella enterica subsp. enterica serovar Typhimurium. In general terms: Kinase-Glo measures the ATP left after a reaction by luminescence.
As for `O=C(O)c1ccc(O)c2ncccc12`, the half-maximal inhibitory concentration (IC50) came to 292 µM.
As to `O=C(O)c1ccccc1Nc1ccc(Cl)cc1`, the IC50 came to 141 µM.
Consider `O=C(O)c1ccccc1Nc1cccc(Cl)c1`, for which the half-inhibitory concentration (IC50) turned out to be 119 µM.
Regarding `O=C(O)C(=O)Nc1nc2ccc(NC(=O)c3cc(Br)c(Br)[nH]3)cc2s1`, the half-inhibitory concentration (IC50) turned out to be 18 µM.
In the case of `O=C(O)c1ccc(Cl)cc1Nc1ccccc1`, the IC50 stood at 30 µM.
`O=C(O)CC(=O)Nc1ccc2nc(N(Cc3ccccc3)C(=O)c3cc(Br)c(Br)[nH]3)sc2c1`: the IC50 came out at 15 µM.
Take `O=C(O)C(=O)Nc1ccc2nc(N(Cc3ccccc3)C(=O)c3cc(Br)c(Br)[nH]3)sc2c1`: the IC50 amounted to 18 µM.
On the same count and under the same terms, under `Cc1[nH]c(C(=O)N(Cc2ccccc2)c2nc3ccc(NC(=O)C(=O)O)cc3s2)c(Cl)c1Cl` stands 29 µM.
The same measure, in the same setting: as for `O=C(O)c1c(Cl)c(Cl)c(Cl)c(Cl)c1Nc1cc(Cl)c(Cl)c(Cl)c1Cl`, the figure is 12 µM; as for `O=C(Nc1ccc(C2=N[C@@H](C(=O)O)CO2)cc1)c1cc(Br)c(Br)[nH]1`, 78 µM.
With `O=C(O)C(=O)N[C@H]1CCc2nc(NC(=O)c3cc(Br)c(Br)[nH]3)sc2C1`, the IC50 is 147 µM.
With `COc1ccc(Nc2cc(C(F)(F)F)ccc2Cl)c(C(=O)O)c1`, the IC50 worked out at 67 µM.
Consider `Cc1ccc(Cl)c(Nc2ccccc2C(=O)O)c1Cl` [MECLOFENAMIC ACID], for which the IC50 amounted to 178 µM.
Still for that read-out and setting: as for `Cc1c(Cl)cccc1Nc1ccccc1C(=O)O` [TOLFENAMIC ACID], the figure is 70 µM.

The nature of a further experiment: Inhibition of LsrK expressed in Escherichia coli JW5503 harboring plasmid pET-Plsrlux assessed as reduction in autoinducer2-mediated quorum sensing activation by luminescence method.
For the compound `O=C(O)C(=O)Nc1nc2ccc(NC(=O)c3cc(Br)c(Br)[nH]3)cc2s1`, the half-maximal inhibitory concentration (IC50) was determined as 0.6 µM.
Same read-out and setting: under `O=C(O)CC(=O)Nc1ccc2nc(N(Cc3ccccc3)C(=O)c3cc(Br)c(Br)[nH]3)sc2c1` stands 0.4 µM; under `O=C(O)C(=O)Nc1ccc2nc(N(Cc3ccccc3)C(=O)c3cc(Br)c(Br)[nH]3)sc2c1`, 10 µM.
Regarding `Cc1[nH]c(C(=O)N(Cc2ccccc2)c2nc3ccc(NC(=O)C(=O)O)cc3s2)c(Cl)c1Cl`, the concentration for half-maximal inhibition (IC50) came to 1 µM.
Regarding `O=C(Nc1ccc(C2=N[C@@H](C(=O)O)CO2)cc1)c1cc(Br)c(Br)[nH]1`, the concentration for half-maximal inhibition (IC50) is 17 µM.
With `O=C(O)C(=O)N[C@H]1CCc2nc(NC(=O)c3cc(Br)c(Br)[nH]3)sc2C1`, the half-maximal inhibitory concentration (IC50) is 2 µM.

The next experiment is described as follows: Inhibition of Salmonella typhimurium LsrK expressed in Escherichia coli MET1158 incubated for 30 mins followed by DPD and ATP addition and measured after 15 mins by kinase-glo max luminescent assay. Details: species or system Salmonella enterica subsp. enterica serovar Typhimurium.
In turn, `O=C(O)C1=CC(=C(c2ccc(O)c(C(=O)O)c2)c2ccc(O)c(C(=O)O)c2)C=CC1=O` [AURINTRICARBOXYLIC ACID] displayed an IC50 of 1 µM.
Take `O=C1C=CC(=C(c2ccc(O)cc2)c2ccc(O)cc2)C=C1` [AURIN]: the 50% inhibitory concentration (IC50) came to 1 µM.
On the same count and under the same terms, as for `CC1=C(O)C(=O)C=C2C1=CC=C1[C@@]2(C)CC[C@@]2(C)[C@@H]3C[C@](C)(C(=O)O)CC[C@]3(C)CC[C@]12C` [CELASTROL], the figure is 3 µM; as for `COc1cc(C)c2c(c1C=O)Oc1c(c(C)c(O)c3c1C(O)OC3=O)OC2=O` (stereo not given) [STICTIC ACID], 3 µM.

The nature of a further experiment: Inhibition of LsrK expressed in Escherichia coli LW7 pLW11 harboring assessed as reduction in autoinducer2-mediated quorum sensing by measuring beta-galactosidase expression by luminescence method.
With `O=C1C=CC(=C(c2ccc(O)cc2)c2ccc(O)cc2)C=C1` [AURIN], the IC50 was determined as 14 µM.
